Results reported in the supplement of paper PMC10307832.

How the values were obtained:
Assay in all cases: relative viability (nuclei count vs DMSO), 5 days (fraction); higher = more cells survive
[1] = tested on: NCI-H727
Summary of the method: (§1)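 Each reported value is a median over duplicate plates. It expresses relative viability: treated-well nuclei count divided by vehicle-well nuclei count. Lung cancer cell lines in 1536-well plates were dosed by pin tool a day after seeding, alone with one drug or with a fixed anchor-drug dose plus five library-drug doses (not always all listed) in √10 steps, and nuclei were counted after 5 days.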

[2] = tested on: BEN
Summary of the method: as §1

[3] = tested on: NCI-H1944
Summary of the method: as §1

[4] = tested on: ABC-1
Summary of the method: as §1

[5] = tested on: NCI-H1651
Summary of the method: as §1

[6] = tested on: NCI-H460
Summary of the method: as §1

[7] = tested on: NCI-H2023
Summary of the method: as §1

[8] = tested on: NCI-H520
Summary of the method: as §1

[9] = tested on: 201T
Summary of the method: as §1

[10] = tested on: NCI-H661
Summary of the method: as §1

[11] = tested on: NCI-H441
Summary of the method: as §1

[12] = tested on: LCLC-97TM1
Summary of the method: as §1

[13] = tested on: NCI-H2087
Summary of the method: as §1

[14] = tested on: A-427
Summary of the method: as §1

[15] = tested on: LC-2-ad
Summary of the method: as §1

[16] = tested on: NCI-H1915
Summary of the method: as §1

[17] = tested on: NCI-H596
Summary of the method: as §1

[18] = tested on: NCI-H650
Summary of the method: as §1

[19] = tested on: PC-3 [JPC-3]
Summary of the method: as §1

[20] = tested on: CAL-12T
Summary of the method: as §1

[21] = tested on: NCI-H1650
Summary of the method: as §1

[22] = tested on: H3255
Summary of the method: as §1

SMILES: NC(=O)Nc1cc(-c2cccc(F)c2)sc1C(=O)N[C@H]1CCCNC1 [AZD7762] + COc1cc2c(Oc3ccc(NC(=O)C4(C(=O)Nc5ccc(F)cc5)CC4)cc3F)ccnc2cc1OCCCN1CCOCC1 [Foretinib] (partner 0.25 µM)
- relative viability ([1]; first compound 0.01 µM): 0.989
- relative viability ([1]; first compound 0.03162 µM): 0.804
- relative viability ([1]; first compound 0.1 µM): 0.728
- relative viability ([1]; first compound 0.3162 µM): 0.889
- relative viability ([1]; first compound 1 µM): 0.466
- relative viability ([2]; first compound 0.01 µM): 0.714
- relative viability ([2]; first compound 0.03162 µM): 0.747
- relative viability ([2]; first compound 0.1 µM): 0.621
- relative viability ([2]; first compound 0.3162 µM): 0.507
- relative viability ([2]; first compound 1 µM): 0.596
- relative viability ([3]; first compound 0.01 µM): 0.907
- relative viability ([3]; first compound 0.03162 µM): 0.975
- relative viability ([3]; first compound 0.1 µM): 1.06
- relative viability ([3]; first compound 0.3162 µM): 1.08
- relative viability ([3]; first compound 1 µM): 0.591
- relative viability ([4]; first compound 0.01 µM): 1.22
- relative viability ([4]; first compound 0.03162 µM): 1.23
- relative viability ([4]; first compound 0.1 µM): 0.851
- relative viability ([4]; first compound 0.3162 µM): 0.402
- relative viability ([4]; first compound 1 µM): 0.212
- relative viability ([5]; first compound 0.01 µM): 0.912
- relative viability ([5]; first compound 0.03162 µM): 0.785
- relative viability ([5]; first compound 0.1 µM): 0.693
- relative viability ([5]; first compound 0.3162 µM): 0.573
- relative viability ([5]; first compound 1 µM): 0.186
- relative viability ([6]; first compound 0.01 µM): 1.12
- relative viability ([6]; first compound 0.03162 µM): 1
- relative viability ([6]; first compound 0.1 µM): 1.01
- relative viability ([6]; first compound 0.3162 µM): 0.964
- relative viability ([6]; first compound 1 µM): 0.176
- relative viability ([7]; first compound 0.01 µM): 0.788
- relative viability ([7]; first compound 0.03162 µM): 0.529
- relative viability ([7]; first compound 0.1 µM): 0.652
- relative viability ([7]; first compound 0.3162 µM): 0.393
- relative viability ([7]; first compound 1 µM): 0.098
- relative viability ([8]; first compound 0.01 µM): 0.989
- relative viability ([8]; first compound 0.03162 µM): 0.826
- relative viability ([8]; first compound 0.1 µM): 0.803
- relative viability ([8]; first compound 0.3162 µM): 0.518
- relative viability ([8]; first compound 1 µM): 0.351
- relative viability ([9]; first compound 0.01 µM): 1.17
- relative viability ([9]; first compound 0.03162 µM): 1.26
- relative viability ([9]; first compound 0.1 µM): 1.11
- relative viability ([9]; first compound 0.3162 µM): 0.961
- relative viability ([9]; first compound 1 µM): 0.279
- relative viability ([10]; first compound 0.01 µM): 1.08
- relative viability ([10]; first compound 0.03162 µM): 1.1
- relative viability ([10]; first compound 0.1 µM): 1.12
- relative viability ([10]; first compound 0.3162 µM): 1.03
- relative viability ([10]; first compound 1 µM): 0.598
- relative viability ([11]; first compound 0.01 µM): 1.3
- relative viability ([11]; first compound 0.03162 µM): 1.07
- relative viability ([11]; first compound 0.1 µM): 1.11
- relative viability ([11]; first compound 0.3162 µM): 1.19
- relative viability ([11]; first compound 1 µM): 0.955
- relative viability ([12]; first compound 0.01 µM): 0.891
- relative viability ([12]; first compound 0.03162 µM): 0.88
- relative viability ([12]; first compound 0.1 µM): 1.02
- relative viability ([12]; first compound 0.3162 µM): 0.95
- relative viability ([12]; first compound 1 µM): 0.948
- relative viability ([13]; first compound 0.01 µM): 1.28
- relative viability ([13]; first compound 0.03162 µM): 1.12
- relative viability ([13]; first compound 0.1 µM): 1.34
- relative viability ([13]; first compound 0.3162 µM): 1.32
- relative viability ([13]; first compound 1 µM): 1.29
- relative viability ([14]; first compound 0.01 µM): 1.08
- relative viability ([14]; first compound 0.03162 µM): 0.976
- relative viability ([14]; first compound 0.1 µM): 1.03
- relative viability ([14]; first compound 0.3162 µM): 0.781
- relative viability ([14]; first compound 1 µM): 0.755
- relative viability ([15]; first compound 0.01 µM): 1.15
- relative viability ([15]; first compound 0.03162 µM): 1.09
- relative viability ([15]; first compound 0.1 µM): 1.07
- relative viability ([15]; first compound 0.3162 µM): 1.18
- relative viability ([15]; first compound 1 µM): 0.756
- relative viability ([16]; first compound 0.01 µM): 1.18
- relative viability ([16]; first compound 0.03162 µM): 1.08
- relative viability ([16]; first compound 0.1 µM): 1.09
- relative viability ([16]; first compound 0.3162 µM): 1.04
- relative viability ([16]; first compound 1 µM): 0.981
- relative viability ([17]; first compound 0.01 µM): 0.993
- relative viability ([17]; first compound 0.03162 µM): 1.04
- relative viability ([17]; first compound 0.1 µM): 1.01
- relative viability ([17]; first compound 0.3162 µM): 0.923
- relative viability ([17]; first compound 1 µM): 0.744
- relative viability ([18]; first compound 0.01 µM): 1.13
- relative viability ([18]; first compound 0.03162 µM): 0.991
- relative viability ([18]; first compound 0.1 µM): 1.03
- relative viability ([18]; first compound 0.3162 µM): 1.03
- relative viability ([18]; first compound 1 µM): 1.05
- relative viability ([19]; first compound 0.01 µM): 1.06
- relative viability ([19]; first compound 0.03162 µM): 1.06
- relative viability ([19]; first compound 0.1 µM): 1.04
- relative viability ([19]; first compound 0.3162 µM): 1.13
- relative viability ([19]; first compound 1 µM): 1.02
- relative viability ([20]; first compound 0.01 µM): 1.34
- relative viability ([20]; first compound 0.03162 µM): 1.01
- relative viability ([20]; first compound 0.1 µM): 1.13
- relative viability ([20]; first compound 0.3162 µM): 0.874
- relative viability ([20]; first compound 1 µM): 0.217
- relative viability ([21]; first compound 0.01 µM): 1.25
- relative viability ([21]; first compound 0.03162 µM): 0.931
- relative viability ([21]; first compound 0.1 µM): 1.14
- relative viability ([21]; first compound 0.3162 µM): 0.804
- relative viability ([21]; first compound 1 µM): 0.24
- relative viability ([22]; first compound 0.01 µM): 1.12
- relative viability ([22]; first compound 0.03162 µM): 0.875
- relative viability ([22]; first compound 0.1 µM): 0.972
- relative viability ([22]; first compound 0.3162 µM): 0.89
- relative viability ([22]; first compound 1 µM): 0.859
